Measured values taken from US20170304815A1, “Antimicrobial And Biological Active Polymer Composites And Related Methods, Materials and Devices” (IASIS MOLECULAR SCIENCES, priority 2014, published 2017).

Legend:
[1] = unbound molecule; cited from earlier work
[2] = Thermogravimetric analysis, thermal stability; format: physicochemical; settings: simple salt
Procedure: Amberlite IRP69 strong cation-exchange material was stirred in a minimal amount of deionized water and an excess (˜10-500 molar excess) silver nitrate was added and the mixture stirred by the addition of a mechanical stirrer for 60 minutes. […] The modified IRP69 was dried under vacuum at 130° C. and the material was milled with an IKA homogenizer and the resulting particles were put through a sieve with a 35 μm cutoff. The powder was dried under vacuum and used for incorporation within various polymer composite mixtures.
Thermal stability of a benzalkonium salt of IRP69 (IRP69-benzalkonium) was measured and compared to thermal stability of benzalkonium chloride (simple salt). […] (close to the optimal processing temperature polyethylene terephthalate), unexpectedly providing for stable incorporation of the subject biologically active materials within composites useful to create fibers, threads, woven textiles and fabrics incorporating these thermally demanding materials.

Row | Compound | susceptible to thermal degradation to p-chloroaniline above [1] | begins to decompose at (thermogravimetric profile) [2]
1 | [H]/N=C(\N/C(=N/[H])NCCCCCCNC(=N)NC(=N)Nc1ccc(Cl)cc1)Nc1ccc(Cl)cc1 [Chlorhexidine] | above 70 °C | 
2 | benzalkonium chloride |  | about 200 °C
